In assay [1] the test system is Bronchial epithelial cells. The assay can be described thus: BioMAP BE3C system (IL-1β + TNF-α + IFN-γ), scoring of readout parameters. In kind it is cell-based, human. The conditions noted are these: for PAI-1 score: desired change decrease; for EGFR score: desired no change or increase. The text has this:
(§1) Each screened compound is scored according to its modulation of the selected readout parameters. Compounds receive a positive score (score of 1) or negative score (score of 0) for each readout parameter set forth in Table 2 that is modulated in the desired direction. […] Parameters may be penalized by making the positive score a −1 for parameters where regulation is opposite to the desired direction.
(§2) Cell culture. Human umbilical vein endothelial cells (HUVEC) were pooled from multiple donors, cultured according to standard methods, and plated into microtiter plates at passage 4. Cell culture medium for all systems containing HUVEC included hydrocortisone. Coronary artery smooth muscle cells (CASM3C) and umbilical artery smooth muscle cells (HSM3C) were cultured according to standard procedures. Peripheral blood mononuclear cells (PBMC) were prepared from buffy coats from normal human donors according to standard methods. Monocyte-derived macrophages were differentiated in the presence of M-CSF for 7 d according to standard procedures. Human dermal fibroblasts were pooled from 3 donors, cultured according to standard methods, and plated confluent 24 h before stimulation. Cell culture medium for all systems containing fibroblasts and keratinocytes contained low hydrocortisone. Epidermal keratinocytes and bronchial epithelial cells from 3 donors were cultured according to standard procedures and pooled when plated into microtiter plates. For keratinocyte-fibroblast co-cultures, cells were plated simultaneously 24 h before stimulation. For bronchial epithelial cell-fibroblast co-cultures, fibroblasts were plated and cultured 48 before addition of epithelial cells, then cultured another 24 hr before stimulation. Concentrations/amounts of agents added to confluent microtiter plates to build each system: cytokines (IL-1β, 1 ng/ml; TNF-α, 5 ng/ml; IFN-γ, 20 ng/ml; IL-4, 5 ng/ml), activators (SAg, 20 ng/ml; histamine, 10 μM; zymosan, 10 μg/ml; or LPS, 2 ng/ml), growth factors (TGF-β, 5 ng/ml; EGF, bFGF, and PDGF-BB, 10 ng/ml), and PBMC (7.5×10^4 cells/well) or macrophages (3.5×10^4 cells/well).
(§3) Compounds. Compounds were prepared in the solvent directed, added 1 hr before stimulation of the cells, and were present during the 24 hr stimulation period for the measurement of parameters listed in Table 2. For proliferation, compounds added 1 hr before stimulation of the cells with cytokines, and were present during the 48 to 72 hr assay. If prepared in DMSO, the final concentration of solvent was 0.1% or less.
(§4) Readout Parameter Measurements. The levels of readout parameters were measured by ELISA. Briefly, microtiter plates are treated, blocked, and then incubated with primary antibodies or isotype control antibodies (0.01-0.5 microg/ml) for 1 hr. After washing, plates were incubated with a peroxidase-conjugated anti-mouse IgG secondary antibody or a biotin-conjugated anti-mouse IgG antibody for 1 hr followed by streptavidin-HRP for 30 min. Plates were washed and developed with TMB substrate and the absorbance (OD) was read at 450 nm (subtracting the background absorbance at 650 nm). Quantitation of TNF-alpha or PGE2 in the LPS system was done using a commercially available kit according to the manufacturer's directions. Proliferation of endothelial cells (HUVEC and CAEC), smooth muscle cells (SMC and CASMC), and PBMC (T cells) was quantitated by Alamar Blue reduction or SRB.
(§5) Data analysis. Mean OD values for each parameter were calculated for compounds run in duplicate. The mean value (or single well OD value) for each parameter in a treated sample was then divided by the mean value from an appropriate control to generate a ratio. All ratios were then log10 transformed. 95% significance prediction envelopes (grey shading in Figures) were calculated for historical controls.

Assay [2] deals with Umbilical Vein Endothelial Cells. The assay can be described thus: BioMAP 3C system (IL-1β + TNF-α + IFN-γ), scoring of readout parameters. In kind it is cell-based, human. The conditions noted are these: for HLA-DR score: desired change decrease; for uPAR score: desired change increase.
Source text: as §1, §2, §3, §4, §5

Assay [3] deals with Peripheral Blood Mononuclear Cells + Umbilical Vein Endothelial Cells. The assay can be described thus: BioMAP LPS system (TLR4), scoring of readout parameters. In kind it is cell-based, human. The conditions noted are these: LPS (by position); desired change decrease.
Source text: as §1, §2, §3, §4, §5

The subject of assay [4] is human primary cells. Description: Total score for desired parameter modulation over the BioMAP systems of Table 1. In kind it is cell-based. The conditions noted are these: penalties not applied.
Source text: as §1
The relative importance of each parameter may be weighted by the screener to select those parameters of greatest interest for a particular application.
Compounds were first selected to inhibit PAI-1 in the HDFT as an indication of TBF-b signaling inhibition without being cytotoxic. […] Blank spots in Table 3 were where parameter was not assayed. Penalties were not applied for this scoring.
BioMAP Systems are designed to model complex human disease biology in a practical in vitro format. This is achieved by stimulating human primary cells (single cell type or defined mixtures of cell types) such that multiple disease-relevant signaling pathways are simultaneously active. The choice of cell types and stimulations is guided by the knowledge of disease biology and mechanisms. Incorporating appropriate cell types and stimulating signaling pathways relevant to disease states allows association of biological activities detected in BioMAP Systems with disease processes. Drug effects are then recorded by measuring biologically meaningful protein readouts that provide coverage of biological space of interest (e.g., inflammation, tissue remodeling) and allow discrimination between different drug classes tested.
as §2, §3
Readout Parameter Measurements. The levels of readout parameters were measured by ELISA.

Assay [5] deals with Fibroblasts. Description: BioMAP HDF3CGF system (IL-1β + TNF-α + IFN-γ + EGF + bFGF + PDGFbb), scoring of readout parameters. In kind it is cell-based, human. The conditions noted are these: for PAI-1 score: desired change decrease; for MMP-1 score: desired change increase; for EGFR score: desired no change or increase.
Procedure: In the “HDF-3CGF” system, dermal fibroblast cells, usually primary human dermal fibroblast cells are cultured alone or in the presence of lung epithelial cells, usually primary human lung epithelial cells, with two or more factors selected from: TNF, IL-1, IFNγ, EGF, bFGF+HSPG (heparan sulfate proteoglycan), and PDGFbb. In some embodiments three or more factors are present, four or more, five or more, or all six factors are present.
Human neonatal dermal fibroblasts (HDFn) or adult lung fibroblasts (HDFp) or fibroblasts from tissues such as liver, heart, or kidney are used. Cells are cultured at 3×10^4 cells/ml in DMEM/F12 (50/50) from Cellgro, supplemented with LSGS kit (from Cascade Biologics); fetal bovine serum, 2% v/v, hydrocortisone 100 nM, human epidermal growth factor 10 ng/ml, basic fibroblast growth factor 3 ng/ml and heparin 10 μg/ml, and penicillin/streptomycin amphotericin B solution (PSA), until confluency. Medium is replaced with DMEM/F12 with only penicillin/streptomycin amphotericin B solution (PSA), then 24 hours later, the following are applied:
After another 24, 48 or 72 hours incubation (37° C., 5% CO2) the cultures are evaluated for the following parameters: ICAM, VCAM, CD40, CD90, IP-10, MCP-1, Collagen I, Mig, m-CSF, TIMP-2, PAI-I, IL-8, Collagen III, HLA-DR, MMP-1, MMP-9, proliferation, TGF-b1, eotaxin-3, decorin, alpha-SMC, MLCK, I-TAC, EGFR, TIMP-1.
Cell culture. […] Human dermal fibroblasts were pooled from 3 donors, cultured according to standard methods, and plated confluent 24 h before stimulation. Cell culture medium for all systems containing fibroblasts and keratinocytes contained low hydrocortisone. […] Concentrations/amounts of agents added to confluent microtiter plates to build each system: cytokines (IL-1β, 1 ng/ml; TNF-α, 5 ng/ml; IFN-γ, 20 ng/ml; IL-4, 5 ng/ml), activators (SAg, 20 ng/ml; histamine, 10 μM; zymosan, 10 μg/ml; or LPS, 2 ng/ml), growth factors (TGF-β, 5 ng/ml; EGF, bFGF, and PDGF-BB, 10 ng/ml), and PBMC (7.5×10^4 cells/well) or macrophages (3.5×10^4 cells/well).
In assay [6] the test system is Bronchial epithelial cells. Description: BioMAP BE4T system (IL-4 + TNF-a), scoring of readout parameters. Set-up: key: 1 = modulated in desired direction, 0 = not (−1 = opposite). The conditions noted are these: for PAI-1 score: desired change decrease; for EGFR score: desired no change or increase. In kind it is cell-based, human. The protocol: In the “BE4T” system, bronchial epithelial cells, usually primary human bronchial epithelial cells, are cultured in the presence of TNF-α and IL-4.
as §1, §2, §3, §4, §5

Take `COC(=O)Nc1nc2ccc(SC(C)C)cc2[nH]1` [Methiazole]: in assay [1], the HLA-DR score was 0, the MMP-1 score is 0, the uPA score is given as 0 and the PAI-1 score is on record as 1. Further, in assay [1], the EGFR score was determined as 0. Further, in assay [2], the HLA-DR score stood at 0 and the uPAR score stood at 0. For the same compound, the TF score in assay [3] is 1. Moreover, in assay [4], the “Score (Fraction correctly modulated parameters out of 45-58 total)” value was 0.55. Also, in assay [5], the PAI-1 score is recorded as 1, the MMP-1 score was found to be 0 and the EGFR score is 0. For the same compound, in assay [6], the uPA score was 0, the PAI-1 score was found to be 1 and the EGFR score came out at 0.

Turning to `C[C@]12C=CC(=O)C=C1CC[C@@H]1[C@@H]2[C@@H](O)C[C@@]2(C)[C@H]1CC[C@]2(O)C(=O)CO` [Prednisolone], in assay [1], the HLA-DR score was 0, the MMP-1 score was 0, the uPA score is recorded as 0 and the PAI-1 score is 0. Further, in assay [1], the EGFR score came to 0. Besides, in assay [2], the HLA-DR score was determined as 1 and the uPAR score is on record as 0. Also, in assay [3], the TF score is 0. In assay [4], the “Score (Fraction correctly modulated parameters out of 45-58 total)” value amounted to 0.17. In assay [5], the PAI-1 score amounted to 0, the MMP-1 score is on record as 0 and the EGFR score is recorded as 0. In assay [6], the uPA score came to 0, the PAI-1 score is on record as 0 and the EGFR score was determined as 0.

As for `Cc1c(Cl)cccc1Nc1ccccc1C(=O)O` [Tolfenamic Acid], in assay [1], the HLA-DR score was 0, the MMP-1 score was found to be 1, the uPA score is on record as 0 and the PAI-1 score was 1. The EGFR score in assay [1] was determined as 0. Further, in assay [2], the HLA-DR score is 0 and the uPAR score is listed as 0. Further, the TF score in assay [3] stood at 0. The “Score (Fraction correctly modulated parameters out of 45-58 total)” value in assay [4] was 0.33. For the same compound, in assay [5], the PAI-1 score came out at 0, the MMP-1 score is reported as 0 and the EGFR score amounted to 0. In addition, in assay [6], the uPA score turned out to be 0, the PAI-1 score stood at 0 and the EGFR score is recorded as 0.

For `COc1cc(-c2ccc(=O)[nH]n2)ccc1OC(F)F` [Zardaverine], in assay [1], the HLA-DR score is listed as 0, the MMP-1 score is 0, the uPA score was 0 and the PAI-1 score was found to be 0. For the same compound, in assay [1], the EGFR score stood at 0. For the same compound, in assay [2], the HLA-DR score is recorded as 0 and the uPAR score was determined as 0. For the same compound, the TF score in assay [3] is 1. The “Score (Fraction correctly modulated parameters out of 45-58 total)” value in assay [4] is on record as 0.25. In addition, in assay [5], the PAI-1 score was found to be 1, the MMP-1 score came to 0 and the EGFR score was 0. In assay [6], the uPA score is listed as 0, the PAI-1 score is given as 0 and the EGFR score was 0.

Consider (R)-(−)-Apomorphine, for which, in assay [1], the HLA-DR score amounted to 1, the MMP-1 score is on record as 0, the uPA score came out at 0 and the PAI-1 score was 1. Also, the EGFR score in assay [1] is on record as 0. In addition, in assay [2], the HLA-DR score came to 0 and the uPAR score is listed as 0. For the same compound, in assay [3], the TF score is given as 0. In addition, in assay [4], the “Score (Fraction correctly modulated parameters out of 45-58 total)” value amounted to 0.31. Further, in assay [5], the PAI-1 score was 1, the MMP-1 score came out at 0 and the EGFR score was determined as 0. Further, in assay [6], the uPA score is reported as 0, the PAI-1 score worked out at 0 and the EGFR score amounted to 0.

In the case of Antimycin A, in assay [1], the HLA-DR score is reported as 0, the MMP-1 score came to 0, the uPA score was found to be 0 and the PAI-1 score is reported as 1. Besides, the EGFR score in assay [1] came to 0. In assay [2], the HLA-DR score stood at 0 and the uPAR score was found to be 0. For the same compound, in assay [3], the TF score came out at 1. Besides, the “Score (Fraction correctly modulated parameters out of 45-58 total)” value in assay [4] was found to be 0.45. In assay [5], the PAI-1 score is recorded as 1, the MMP-1 score was found to be 0 and the EGFR score is 0. Also, in assay [6], the uPA score is reported as 0, the PAI-1 score worked out at 1 and the EGFR score is reported as 0.
